# Literature values in US20030114418A1, “Method for the treatment and prevention of pain and inflammation with glucosamine and a cyclooxygenase-2 selective inhibitor and compositions therefor” (Pharmacia Corporation, priority 2001, published 2003).
# How the values were obtained:
# knee osteoarthritis = settings: patients with knee osteoarthritis, 1500 mg/day, 3 years
Structure (SMILES),selectivity for the inhibition of Cox-2 versus Cox-1 (Cox-2),also measured
CC1(C)CC[C@]2(C(=O)O)CC[C@]3(C)C(=CC[C@@H]4[C@@]5(C)CC[C@H](O)C(C)(C)[C@@H]5CC[C@]43C)[C@@H]2C1 [oleanic acid],not substantially more selective for the inhibition of Cox-2 than for Cox-1,–
N[C@H]1C(O)O[C@H](CO)[C@@H](O)[C@@H]1O.O=S(=O)(O)O (stereo partly shown) [glucosamine sulfate],–,joint-space loss (knee osteoarthritis): no significant joint-space loss
C[C@H]1[C@H](C)CC[C@]2(C(=O)O)CC[C@]3(C)C(=CC[C@@H]4[C@@]5(C)CC[C@H](O)C(C)(C)[C@@H]5CC[C@]43C)[C@H]12 [ursolic acid],not substantially more selective for the inhibition of Cox-2 than for Cox-1,–
CC(=O)N[C@H]1C(O)O[C@H](CO)[C@@H](O)[C@@H]1O (stereo partly shown) [N-acetylglucosamine],–,effect on il-1beta-mediated activation of human chondrocytes (human chondrocytes): prevent il-1beta-mediated activation of human chondrocytes
